The NIST ThermoML archive (doi:10.1016/j.jct.2019.03.039)

Experiment: mn = molality of the nth substance listed, in mol/kg
Details: 101.3 kPa, Liquid; for viscosity: Capillary tube (Ostwald / Ubbelohde) method; for speed of sound: Frequency=4 MHz, Linear variable-path acoustic interferometer; for mass density: Vibrating tube method

N=C(N)NCCC[C@H](N)C(=O)O [L-arginine] + O
Details | mass density [kg/m3] | speed of sound [m/s] | viscosity [mPa·s]
293.15 K, m1 = 0.05014 | 1000.72 | 1487.6 | 1.032
293.15 K, m1 = 0.1001 | 1003.17 | 1492.7 | 1.054
293.15 K, m1 = 0.15 | 1005.58 | 1497.9 | 1.08
293.15 K, m1 = 0.2 | 1007.92 | 1503.2 | 1.107
293.15 K, m1 = 0.25 | 1010.21 | 1508.6 | 1.13
293.15 K, m1 = 0.3001 | 1012.47 | 1514.1 | 1.155
298.15 K, m1 = 0.05014 | 999.556 | 1502.4 | 0.9151
298.15 K, m1 = 0.1001 | 1001.99 | 1507.5 | 0.9358
298.15 K, m1 = 0.15 | 1004.36 | 1512.7 | 0.9586
298.15 K, m1 = 0.2 | 1006.68 | 1518 | 0.9766
298.15 K, m1 = 0.25 | 1008.94 | 1523.4 | 1
298.15 K, m1 = 0.3001 | 1011.17 | 1528.9 | 1.021
303.15 K, m1 = 0.05014 | 998.142 | 1514.5 | 0.8179
303.15 K, m1 = 0.1001 | 1000.55 | 1519.6 | 0.8355
303.15 K, m1 = 0.15 | 1002.9 | 1524.8 | 0.8555
303.15 K, m1 = 0.2 | 1005.19 | 1530.1 | 0.8718
303.15 K, m1 = 0.25 | 1007.45 | 1535.5 | 0.8909
303.15 K, m1 = 0.3001 | 1009.67 | 1541 | 0.9084
308.15 K, m1 = 0.05014 | 996.503 | 1524.3 | 0.7362
308.15 K, m1 = 0.1001 | 998.883 | 1529.4 | 0.7512
308.15 K, m1 = 0.15 | 1001.21 | 1534.6 | 0.7694
308.15 K, m1 = 0.2 | 1003.48 | 1539.9 | 0.7828
308.15 K, m1 = 0.25 | 1005.7 | 1545.3 | 0.7987
308.15 K, m1 = 0.3001 | 1007.89 | 1550.8 | 0.8144
313.15 K, m1 = 0.05014 | 994.671 | 1533.7 | 0.6673
313.15 K, m1 = 0.1001 | 997.036 | 1538.8 | 0.6808
313.15 K, m1 = 0.15 | 999.344 | 1544 | 0.6951
313.15 K, m1 = 0.2 | 1001.6 | 1549.3 | 0.7067
313.15 K, m1 = 0.25 | 1003.8 | 1554.7 | 0.7224
313.15 K, m1 = 0.3001 | 1005.97 | 1560.3 | 0.7345

N[C@@H](CO)C(=O)O [L-serine] + O
Details | mass density [kg/m3] | speed of sound [m/s] | viscosity [mPa·s]
293.15 K, m1 = 0.05002 | 1000.49 | 1485.7 | 1.011
293.15 K, m1 = 0.1001 | 1002.74 | 1488.9 | 1.022
293.15 K, m1 = 0.15 | 1004.96 | 1492.2 | 1.034
293.15 K, m1 = 0.2003 | 1007.18 | 1495.6 | 1.046
293.15 K, m1 = 0.2502 | 1009.36 | 1499.1 | 1.058
293.15 K, m1 = 0.2999 | 1011.52 | 1502.7 | 1.069
298.15 K, m1 = 0.05002 | 999.314 | 1500.4 | 0.8972
298.15 K, m1 = 0.1001 | 1001.55 | 1503.5 | 0.907
298.15 K, m1 = 0.15 | 1003.74 | 1506.7 | 0.9165
298.15 K, m1 = 0.2003 | 1005.94 | 1510 | 0.9277
298.15 K, m1 = 0.2502 | 1008.1 | 1513.4 | 0.9379
298.15 K, m1 = 0.2999 | 1010.23 | 1516.9 | 0.9477
303.15 K, m1 = 0.05002 | 997.896 | 1512.4 | 0.8025
303.15 K, m1 = 0.1001 | 1000.1 | 1515.4 | 0.8115
303.15 K, m1 = 0.15 | 1002.27 | 1518.5 | 0.8204
303.15 K, m1 = 0.2003 | 1004.44 | 1521.7 | 0.8295
303.15 K, m1 = 0.2502 | 1006.56 | 1525 | 0.8377
303.15 K, m1 = 0.2999 | 1008.66 | 1528.4 | 0.8466
308.15 K, m1 = 0.05002 | 996.254 | 1522.1 | 0.723
308.15 K, m1 = 0.1001 | 998.433 | 1525 | 0.7313
308.15 K, m1 = 0.15 | 1000.58 | 1528 | 0.7386
308.15 K, m1 = 0.2003 | 1002.72 | 1531.1 | 0.7463
308.15 K, m1 = 0.2502 | 1004.83 | 1534.3 | 0.7535
308.15 K, m1 = 0.2999 | 1006.92 | 1537.6 | 0.7611
313.15 K, m1 = 0.05002 | 994.421 | 1531.4 | 0.6558
313.15 K, m1 = 0.1001 | 996.578 | 1534.2 | 0.6627
313.15 K, m1 = 0.15 | 998.702 | 1537.1 | 0.6688
313.15 K, m1 = 0.2003 | 1000.82 | 1540.2 | 0.6756
313.15 K, m1 = 0.2502 | 1002.91 | 1543.3 | 0.682
313.15 K, m1 = 0.2999 | 1004.97 | 1546.6 | 0.6881
